{"source": "patent US12297213B2", "about": "“Metal hydroxide complex comprising modified multilayer hydroxide structure comprising active ingredient and method of manufacturing same” (CNPHARM CO., LTD., priority 2018, dated 2025)", "key": {"[1]": {"tested_on": "COL3A1 mRNA", "assay": "COL3A1 (type 3 collagen) mRNA expression by qRT-PCR in human dermal fibroblasts", "type": "cell-based", "conditions": "positive control at 5.0 ng/ml, mean±SD", "protocol": "(§1) For the in-vitro collagen production increase test of Example 3 (hereinafter, referred to as “JL-101 powder”), normal human dermal fibroblasts (HDFs) were used. In order to set the test solution concentration of the sample, HDFs were treated with the sample material for 24 hr and the concentration range in which cytotoxicity was not observed was confirmed through a cytotoxicity test. HDFs were treated with 'JL-101 powder' at the set test solution concentration in the same manner, and thus the expression levels of COL1A1 and COL3A1 mRNA, which are collagen genes, were compared and analyzed using real-time PCR (RT-PCR). […] The expression level of a collagen gene was determined by measuring the expression levels of a COL1A1 gene, which is a representative component of type 1 collagen, and of a COL3A1 gene, which is a representative component of type 3 collagen, using quantitative real-time PCR (qRT-PCR) (Peter, 2008). […] The concentration and purity (A260/A280 and A260/A230 ratio) of total mRNA were measured using a MaestroNano® microvolume spectrophotometer (Maestrogen, Las Vegas, NV, USA), and only total mRNA having high purity of 2.0 or more was selected. […] Mix Plus (Solis BioDyne, Estonia), and the expression of the corresponding gene was analyzed using Line-Gene K software (Bioer Technology Co. Ltd., Hangzhou, China). […]"}, "[2]": {"tested_on": "COL1A1 mRNA", "assay": "COL1A1 (type 1 collagen) mRNA expression by qRT-PCR in human dermal fibroblasts", "type": "cell-based", "conditions": "positive control at 5.0 ng/ml, mean±SD", "protocol": "as §1"}}}
{"substance": "TGF-β", "values": [{"measurement": "increase of expression of COL3A1 mRNA compared to the negative control", "setting": "[1]", "value": "22.93±6.21", "unit": "%"}, {"measurement": "increase of expression of COL1A1 mRNA compared to the negative control", "setting": "[2]", "value": "219.65±7.25", "unit": "%"}]}
